Measured values published in patent US8450293B2, “Synthesis and characterization of C8 analogs of c-di-GMP” (Rutgers, The State University of New Jersey, priority 2010, dated 2013).

Tests used:
[1] = NMR / 2D DOSY study of metal-dependent complex formation; type: physicochemical; details: NMR concentrations (26-31 mM)
Description: Three larger and three smaller resonances clustered near 6 ppm, from the H1′ were observed. Diffusion coefficients (D, m^2/s×10^−1), obtained from a separate 2D DOSY experiment on the same sample, are indicated in parentheses. […] (Zhang et al., J. Am. Chem. Soc. 2006, 128, 7015-7024; Zhao et al., Nucleosides Nucleotides Nucl. Acids 2009, 28, 352-378) Here, all three larger resonances have D=1.5, indicative of octamolecular complexes. The two farthest downfield of the three smaller resonances have D=1.7, indicative of tetramolecular complexes (the octamolecular having been already identified), and the remaining farthest upfield smaller resonance has D=3.5, indicative of a bimolecular structure. At 5° C., all three smaller resonances nearly disappear, leaving primarily the three larger ones. The octamolecular complexes are expected to be preferentially stabilized at lower temperatures. At 55° C., the three larger resonances all decrease, and only the farthest upfield of the smaller resonances increases, confirming it is the bimolecular structure. The higher order complexes are disrupted at higher temperatures, leaving the bimolecular structure dominant.
All NMR spectra were acquired on a Varian VNMRS 500 MHz spectrometer. Samples were 31 mM of 2, 27 mM of 3, 26 mM of […] of 5, and 26 mM of 6, each in 0.30 mL H2O containing 10% D2O. The pH of all samples was adjusted to 6.8, using either HCl or KOH/NaOH/LiOH, as appropriate. Each sample was heated to 75° C. for 10 minutes, then allowed to cool to room temperature before being transferred to the NMR tube. The ^1H and ^13C NMR spectra were referenced to sodium trimethylsilylpropylsulfonate in D2O, and the ^31P NMR spectra were referenced to 10% phosphoric acid in D2O. The 1D ^1H NMR spectra used frequency pre-saturation for water suppression. The DOSY spectra used a pre-saturation pulse for water suppression. The data were collected using a 2.5 second relaxation delay over an 8000 Hz spectral width, with 16 repetitions over 256 increments and a diffusion delay of 0.1 seconds. For the HMBC experiments, the ^1H spectra were acquired with 16 scans, with acquisition time and relaxation delay of 2 s and 1.5 s, respectively. To suppress water, ^1H pre-saturation was applied during the relaxation delay. The ^13C spectra were acquired with 1024 scans, with acquisition time and relaxation delay of 0.5 s and 1 s, respectively. For NOE enhancement and ^1H decoupling, ^1H WALTZ16 decoupling was applied during the entire experiment. ^1H-^13C HMBC 2D spectra were acquired using 2048 (t2) times 100 (t1) complex points with spectral widths of 8000 Hz (t2) and 10000 Hz (t1) and transformed to spectra with 2048 (D1) times 1024 (D2) real points after two times linear prediction in t1. The number of scans per each t1 increment was 128 and the relaxation delay for each scan was 1.5 s. To suppress water, ^1H pre-saturation was applied during the relaxation delay. The DEPT transfer delay for HMBC was chosen as ^2,3JHC=20 Hz (the multi-bond coupling constant) and ^1JHC (the one-bond coupling constant) was set as 140 Hz to suppress cross peaks contributed from the one-bond ^1H-^13C connectivity.

[2] = Solubility in water (noted when preparing NMR samples); type: physicochemical; details: K+ salt sample for NMR; spectra obtained in 1:1 CH3OD:H2O instead
Description: Portions of the ^1H NMR spectra of the K^+ salts of 4, 5, and 6 at 25° C. are shown in FIGS. 5B, 5C, and 5D, respectively. […] For 4, 5, and 6, the H1′/amino resonances display nearly identical diffusion constants of 3.7/3.5, 2.4/2.5, and 1.9/2.0, respectively. These resonances become larger at 5° C. and disappear completely at 55° C. In all three cases, ^1H spectra of the Na^+ salts closely resemble those of the K^+ salts.

[3] = similar concentrations; Zhang et al. 2004; cited from earlier work

| Compound | complex formed (self-association) ([1]; K+ salt) | complex formed (self-association) ([1]; Na+ salt) | solubility in water [2] | hypochromic effect in UV melt [3] |
| --- | --- | --- | --- | --- |
| CC(=O)c1cccc(-c2nc3c(=O)[nH]c(N)nc3n2[C@@H]2O[C@@H]3COP(=O)(O)OC4C(O)[C@H](n5c(-c6cccc(C(C)=O)c6)nc6c(=O)[nH]c(N)nc65)O[C@@H]4COP(=O)(O)OC3C2O)c1 (stereo partly shown) [compound 6, cyclo-8-(3-acetylphenyl)-guanosinylyl(3′→5′)-8′-(3-acetylphenyl)-guanosinylyl(3′→5′)] | primarily a syn bimolecular structure | primarily a syn bimolecular structure | not soluble in water | – |
| Nc1nc2c(nc(-c3ccccc3)n2[C@@H]2O[C@@H]3COP(=O)(O)OC4C(O)[C@H](n5c(-c6ccccc6)nc6c(=O)[nH]c(N)nc65)O[C@@H]4COP(=O)(O)OC3C2O)c(=O)[nH]1 (stereo partly shown) [compound 5, cyclo-8-phenylguanosinylyl (3′→5′)-8′-phenylguanosinylyl (3′→5′)] | primarily a syn bimolecular structure | primarily a syn bimolecular structure | – | – |
| CSc1nc2c(=O)[nH]c(N)nc2n1[C@@H]1O[C@@H]2COP(=O)(O)OC3C(O)[C@H](n4c(SC)nc5c(=O)[nH]c(N)nc54)O[C@@H]3COP(=O)(O)OC2C1O (stereo partly shown) [compound 4, cyclo-8-methylthioguanosinylyl (3′→5′)-8′-methylthioguanosinylyl (3′→5′)] | primarily a syn bimolecular structure | primarily a syn bimolecular structure | – | – |
| Nc1nc2c(ncn2[C@@H]2O[C@@H]3COP(=O)(O)OC4[C@@H](COP(=O)(O)O[C@@H]3C2O)O[C@@H](n2cnc3c(=O)[nH]c(N)nc32)[C@H]4O)c(=O)[nH]1 (stereo partly shown) [compound 1, cyclic diguanosine monophosphate] | – | – | – | pronounced hypochromism |
| Nc1nc2c(nc(S)n2[C@@H]2O[C@@H]3COP(=O)(O)OC4C(O)[C@H](n5c(=S)[nH]c6c(=O)[nH]c(N)nc65)O[C@@H]4COP(=O)(O)OC3C2O)c(=O)[nH]1 (stereo partly shown) [compound 3, cyclo-8-thioguanosinylyl (3′→5′)-8′-thioguanosinylyl (3′→5′)] | primarily a syn bimolecular structure | primarily a syn bimolecular structure | – | – |
